Laboratory results from patent publication US5525594A, “Treatment of hyperandrogenic disorders” (Roussel Uclaf, priority 1993, dated 1996).

Target: T1, 5α-reductase (Homo sapiens, UniProt P31213)
T1 construct: Homogenates of human prostates obtained by radical prostatectomies; from tissue; host or cells: human prostate from radical prostatectomy for benign hyperplasia; resuspended 140,000 g pellet of the homogenate
T1 sequence (P31213 1-254): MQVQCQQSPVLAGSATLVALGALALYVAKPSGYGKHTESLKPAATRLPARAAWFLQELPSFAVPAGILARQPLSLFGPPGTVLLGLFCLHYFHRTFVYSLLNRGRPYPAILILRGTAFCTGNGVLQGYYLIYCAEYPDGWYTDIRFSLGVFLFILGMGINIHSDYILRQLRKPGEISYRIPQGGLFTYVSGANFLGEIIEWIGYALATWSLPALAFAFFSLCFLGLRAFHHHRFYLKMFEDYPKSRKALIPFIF
Assay: 5α-reductase activity test in vitro, human prostate homogenate, testosterone substrate, HPLC measurement of 5α-reduced metabolites
Assay type: biochemical
Details: homogenates of human prostates (BHP), pH 5.5, 37° C., 30 minutes, read-out: IC50 for inhibition of the 5α-reductase activity of the control
Method: The test for measuring the 5α-reductase activity was carried cut in vitro by incubating the enzyme and its substrate (testosterone) and by measuring by HPLC chromatography the amount of 5α-reduced metabolites formed (dihydrotestosterone (DHT) and 5α-androstane-diol). Homogenates of human prostates obtained by radical prostatectomies due to benign hyperplasia of the prostate (BHP) were used.
The prostate was collected straight after leaving the operating theater suite and packed in aluminum paper placed in a container filled with dry ice. At the laboratory, if the homogenate was not prepared immediately, the prostate could be stored at -80° C. […]
b) Mixture of "unlabelled" testosterone and "tritiated testosterone" with an isotopic dilution of 100: To obtain a 1 mM solution of testosterone, 2.88 mg of "unlabelled" testosterone were weighed out which was dissolved in 10 ml of ethanol. […] Substrate (S) was ready. […]
The amounts of metabolites produced during the incubation were measured by separating the compounds formed by reversed-phase high performance liquid chromatography (HPLC). […] The extract collected after extraction was injected automatically onto the HPLC system and by the linear radioactivity measurement system (Berthold), only the radioactive metabolites, formed from the testosterone labelled with the substrate, were evaluated. […]

IC50: 22 µM
Substance: oenotheine B
